Reference: US8969345B2, “Dibenzooxepin derivative” (Kyowa Hakko Kirin Co., Ltd., priority 2011, dated 2015)

Tests used:
[1] = molecular target: T1, GAL4-PPAR γ chimeric nuclear receptor (human PPAR γ ligand binding domain) (Homo sapiens, UniProt P37231); test: PPAR γ transactivation assay by transient gene transfer (GAL4-PPAR γ chimeric receptor, luciferase reporter, HEK293EBNA cells); assay type: cell-based; details: concentration showing 50% of efficacy (maximum activity rate relative to pioglitazone = 100%), 24 hr
T1 construct: expressed in transfected cells; host or cells: HEK293EBNA cells, transient transfection with SuperFect
T1 sequence (P37231 174-475 isoform P37231-2): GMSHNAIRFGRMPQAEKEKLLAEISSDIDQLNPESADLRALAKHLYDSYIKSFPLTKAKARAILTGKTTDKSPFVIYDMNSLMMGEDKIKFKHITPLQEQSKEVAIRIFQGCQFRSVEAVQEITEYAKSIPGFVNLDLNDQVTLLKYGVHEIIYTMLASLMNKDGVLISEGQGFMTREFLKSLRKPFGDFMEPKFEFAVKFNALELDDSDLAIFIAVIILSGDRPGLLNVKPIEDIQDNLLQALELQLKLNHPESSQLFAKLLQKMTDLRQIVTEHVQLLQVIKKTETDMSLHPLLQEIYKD
Description: The agonist activity of the test compound to PPAR γ was determined by a transactivation assay method using a chimeric nuclear receptor of a DNA binding region of a yeast transcription factor GAL4 and a PPAR γ ligand binding region. Specifically, the PPAR γ agonist activity of the test compound was evaluated by the following method based on the method of Lehmann et al. (J Biol. Chem., 1995, vol. 270, page 12953).
HEK293EBNA cells cultured in Dulbecco's Modified Eagle medium (Invitrogen) containing 10 v/v % fetal bovine serum (Invitrogen) were used. 30 mL of the above-mentioned cells (density: 1×10^5 cells/mL) were inoculated in a […] (Iwaki Glass), and cultured overnight. Using SuperFect Transfection Reagent (QIAGEN), a plasmid expressing a GAL4-PPAR γ chimeric nuclear receptor fusing 174-475 amino acids, which are human PPAR γ ligand binding domain, and 1-147 amino acids, which are GAL4 DNA binding domain, and a reporter plasmid expressing a GAL4 responsive luciferase were transiently introduced into the cells at a proportion of 4:1. After 5 hr from transfection, the cells were detached from the culture dish, and the detached cells (density: 2×10^4 cells/mL) were inoculated by 100 μL in each well of a 96 well white plate (SUMITOMO BAKELITE), and cultured overnight. The medium was removed, the test compound diluted in various concentrations with serum-free Dulbecco's Modified Eagle medium was added by 100 μL, and the mixture was reacted under a 5% carbon dioxide gas stream (5% CO2) at 37° C. for 24 hr. On the other hand, as a positive control, 10 μmol/L of pioglitazone (100 μL) was added, and the mixture was reacted under a 5% carbon dioxide gas stream (5% CO2) at 37° C. for 24 hr. As a substrate of luciferase, 100 μL of Steady-Glo (Promega) was added to each well and the mixture was thoroughly stirred. Immediately thereafter, the chemical luminescence due to luciferase was measured using TopCount NTX (Packard).
The agonist activity (activity rate (%)) of the test compound to PPAR γ was calculated according to the following formula, as a relative activity when the agonist activity on addition of pioglitazone ([…]) was 100%.

[2] = Metabolic stability evaluation in human liver microsome; assay type: in vitro ADME; details: liver microsomes, pH 7.4; human liver microsome 0.2 mg/mL protein, test compound 1 μmol/L, β-NADPH, 37° C., 30 min; average of two samples; read-out: hCLint (converted)
Description: Human liver microsome (pool of 50 donors) was purchased from XenoTech. A reaction mixture containing phosphate buffer (100 mmol/L, pH 7.4), ethylenediamine tetraacetic acid (0.1 mmol/L), magnesium chloride (6 mmol/L), human liver microsome (0.2 mg/mL protein) and test compound (1 μmol/L) was prepared. The reaction mixture was preincubated at 37° C. for 5 min, β-NADPH (1 mmol/L) was added and the mixture was incubated at 37° C. for 30 min. The protein was removed with acetonitrile from the sample after the reaction and the sample was measured by LC-MS/MS. The ratio of the organic solvent in the reaction mixture was set to about 0.5%, and the reaction was performed in 2 samples.
The elimination rate constant (ke) was calculated from the linear regression of the logarithm plot of the residual ratio of the test compound and at 30 min after the reaction, and the liver inherent clearance (Cint) was calculated by the following formula.
[formula] ke: elimination rate constant (1/h) a: concentration (mg/mL) of liver microsome in the reaction mixture b: liver microsome amount per liver unit weight (32.3 mg/g liver) c: liver weight per unit body weight (25.7 g liver/kg body weight) Each test compound was tested in two samples, and the average thereof was calculated.

| EC50 [1] | CLint scaled at 1 μmol/L [2] | Structure (SMILES) |
| --- | --- | --- |
| 7.4 nM | 53.3 mL/min/kg | CCCc1nc2ccccc2n1Cc1ccc2c(c1)COc1cc(F)ccc1/C2=C(\C)c1noc(=O)[nH]1 [Compound 1a, (E)-3-(1-{3-fluoro-8-[(2-propyl-1H-benzo[d]imidazol-1-yl)methyl]dibenzo[b,e]oxepin-11(6H)-ylidene}ethyl)-1,2,4-oxadiazol-5(4H)-one] |
| 11.7 nM | 31.7 mL/min/kg | COCc1nc2ccccc2n1Cc1ccc2c(c1)COc1cc(F)ccc1/C2=C(\C)c1noc(=O)[nH]1 [Compound 1b, (E)-3-[1-(3-fluoro-8-{[2-(methoxymethyl)-1H-benzo[d]imidazol-1-yl]methyl}dibenzo[b,e]oxepin-11(6H)-ylidene)ethyl]-1,2,4-oxadiazol-5(4H)-one] |
| 9 nM | 23.3 mL/min/kg | C/C(=C1/c2ccc(Cn3c(C4CC4)nc4ccccc43)cc2COc2cc(F)ccc21)c1noc(=O)[nH]1 [Compound 1d, (E)-3-(1-{8-[(2-cyclopropyl-1H-benzo[d]imidazol-1-yl)methyl]-3-fluorodibenzo[b,e]oxepin-11(6H)-ylidene}ethyl)-1,2,4-oxadiazol-5(4H)-one] |
| 7.2 nM | 28.3 mL/min/kg | C/C(=C1/c2ccc(Cn3c(C4CC(F)(F)C4)nc4ccccc43)cc2COc2cc(F)ccc21)c1noc(=O)[nH]1 [Compound 1j, (E)-3-[1-(8-{[2-(3,3-difluorocyclobutyl)-1H-benzo[d]imidazol-1-yl]methyl}-3-fluorodibenzo[b,e]oxepin-11(6H)-ylidene)ethyl]-1,2,4-oxadiazol-5(4H)-one] |
| 45.6 nM | 7.33 mL/min/kg | [2H]C([2H])([2H])Oc1cccc2c1nc(COC)n2Cc1ccc2c(c1)COc1cc(F)ccc1/C2=C(\C)c1noc(=O)[nH]1 [Compound 2a, (E)-3-[1-(3-fluoro-8-{[4-(methoxy-d3)-2-(methoxymethyl)-1H-benzo[d]imidazol-1-yl]methyl}dibenzo[b,e]oxepin-11(6H)-ylidene)ethyl]-1,2,4-oxadiazol-5(4H)-one] |
| 59.5 nM | 26.7 mL/min/kg | CCCc1nc2c(C(N)=O)cccc2n1Cc1ccc2c(c1)COc1cc(F)ccc1/C2=C(\C)c1noc(=O)[nH]1 [Compound 2b, (E)-1-({3-fluoro-11-[1-(5-oxo-4,5-dihydro-1,2,4-oxadiazol-3-yl)ethylidene]-6,11-dihydrodibenzo[b,e]oxepin-8-yl}methyl)-2-propyl-1H-benzo[d]imidazole-4-carboxamide] |
| 22.8 nM | 9.5 mL/min/kg | C/C(=C1/c2ccc(Cn3c(C4CCC4)nc4c(Cl)nccc43)cc2COc2cc(F)ccc21)c1noc(=O)[nH]1 [Compound 3b, (E)-3-(1-{8-[(4-chloro-2-cyclobutyl-1H-imidazo[4,5-c]pyridin-1-yl)methyl]-3-fluorodibenzo[b,e]oxepin-11(6H)-ylidene}ethyl)-1,2,4-oxadiazol-5(4H)-one] |
| 8.5 nM | 21.7 mL/min/kg | C/C(=C1/c2ccc(Cn3c(C4CCC4)nc4nc(F)ccc43)cc2COc2cc(F)ccc21)c1noc(=O)[nH]1 [Compound 3i, (E)-3-(1-{8-[(2-cyclobutyl-5-fluoro-1H-imidazo[4,5-b]pyridin-1-yl)methyl]-3-fluorodibenzo[b,e]oxepin-11(6H)-ylidene}ethyl)-1,2,4-oxadiazol-5(4H)-one] |
| 33.5 nM | 31.7 mL/min/kg | C/C(=C1/c2ccc(Cn3c(CN(C)C)nc4ccccc43)cc2COc2cc(F)ccc21)c1noc(=O)[nH]1 [Compound 4a, (E)-3-{1-[8-({2-[(dimethylamino)methyl]-1H-benzo[d]imidazol-1-yl}methyl)-3-fluorodibenzo[b,e]oxepin-11(6H)-ylidene]ethyl}-1,2,4-oxadiazol-5(4H)-one] |
| 54.9 nM | 78.3 mL/min/kg | CCCc1nc2ccccc2n1Cc1ccc2c(c1)COc1cc(F)ccc1/C2=C(/c1noc(=O)[nH]1)C1CC1 [Compound 4g, (E)-3-(cyclopropyl{3-fluoro-8-[(2-propyl-1H-benzo[d]imidazol-1-yl)methyl]dibenzo[b,e]oxepin-11(6H)-ylidene}methyl)-1,2,4-oxadiazol-5(4H)-one] |
| 38 nM | 36.7 mL/min/kg | CC/C(=C1/c2ccc(Cn3c(COC)nc4ccccc43)cc2COc2cc(F)ccc21)c1noc(=O)[nH]1 [Compound 4l, (E)-3-[1-(3-fluoro-8-{[2-(methoxymethyl)-1H-benzo[d]imidazol-1-yl]methyl}dibenzo[b,e]oxepin-11(6H)-ylidene)propyl]-1,2,4-oxadiazol-5(4H)-one] |
| 11.5 nM | 33.3 mL/min/kg | CCCc1nc2ccccc2n1Cc1ccc2c(c1)COc1cc(F)c(F)cc1/C2=C(\C)c1noc(=O)[nH]1 [Compound 6a, (E)-3-(1-{2,3-difluoro-8-[(2-propyl-1H-benzo[d]imidazol-1-yl)methyl]dibenzo[b,e]oxepin-11(6H)-ylidene}ethyl)-1,2,4-oxadiazol-5(4H)-one] |
| 27.7 nM | 48.3 mL/min/kg | CCCc1nc2ccccc2n1Cc1ccc2c(c1)COc1c(ccc(F)c1F)/C2=C(\C)c1noc(=O)[nH]1 [Compound 7a, (E)-3-(1-{3,4-difluoro-8-[(2-propyl-1H-benzo[d]imidazol-1-yl)methyl]dibenzo[b,e]oxepin-11(6H)-ylidene}ethyl)-1,2,4-oxadiazol-5(4H)-one] |
| 4.2 nM | 36.7 mL/min/kg | C/C(=C1/c2ccc(Cc3c(C4CC4)nc4c(Cl)cccn34)cc2COc2cc(F)ccc21)c1noc(=O)[nH]1 [Compound 8a, (E)-3-(1-{8-[(8-chloro-2-cyclopropylimidazo[1,2-a]pyridin-3-yl)methyl]-3-fluorodibenzo[b,e]oxepin-11(6H)-ylidene}ethyl)-1,2,4-oxadiazol-5(4H)-one] |
| 27.7 nM | 40 mL/min/kg | C/C(=C1/c2ccc(Cc3c(C4CC4)nc4ccccn34)cc2COc2cc(F)ccc21)c1noc(=O)[nH]1 [Compound 8b, (E)-3-(1-{8-[(2-cyclopropylimidazo[1,2-a]pyridin-3-yl)methyl]-3-fluorodibenzo[b,e]oxepin-11(6H)-ylidene}ethyl)-1,2,4-oxadiazol-5(4H)-one] |
| 33.3 nM | 50 mL/min/kg | C/C(=C1/c2ccc(Cc3c(C(C)C)nc4ccccn34)cc2COc2cc(F)ccc21)c1noc(=O)[nH]1 [Compound 8c, (E)-3-(1-{3-fluoro-8-[(2-isopropylimidazo[1,2-a]pyridin-3-yl)methyl]dibenzo[b,e]oxepin-11(6H)-ylidene}ethyl)-1,2,4-oxadiazol-5(4H)-one] |
| 31.7 nM | 16.7 mL/min/kg | COCc1nc2ccccn2c1Cc1ccc2c(c1)COc1cc(F)ccc1/C2=C(\C)c1noc(=O)[nH]1 [Compound 8f, (E)-3-[1-(3-fluoro8-{[2-(methoxymethyl)imidazo[1,2-a]pyridin-3-yl]methyl}dibenzo[b,e]oxepin-11(6H)-ylidene)ethyl]-1,2,4-oxadiazol-5(4H)-one] |
| 54.5 nM | 18.3 mL/min/kg | O=c1[nH]c(/C(F)=C2\c3ccc(Cc4c(C5CC5)nc5c(Cl)cccn45)cc3COc3cc(F)ccc32)no1 [Compound 8n, (Z)-3-({8-[(8-chloro-2-cyclopropylimidazo[1,2-a]pyridin-3-yl)methyl]-3-fluorodibenzo[b,e]oxepin-11(6H)-ylidene}fluoromethyl)-1,2,4-oxadiazol-5(4H)-one] |
